Measurements published in patent US20230157996A1, “SMALL-MOLECULE INHIBITOR TARGETING EB VIRUS NUCLEAR ANTIGEN PROTEIN, PREPARATION METHOD AND USE THEREOF” (priority 2020, published 2023).
Read-outs that look alike come from different tables or passages of the source.

Columns and labels:
[1] = test system: C666-1 cells; assay: C666-1 cell viability, EC50 from 8-point dilution (Resazurin); assay type: cell-based; settings: Homo sapiens, C6661, 72 h, 100-0.78 μmol/L, read-out: EC50 Quantitation
Experimental: In order to assess the effect of the EBNA1 inhibitor at the cellular level, the cytotoxicity assay was performed. The EBNA1 inhibitor selectively killed EBV-positive cell lines ([…]-1 cells), but had no toxicity to EBV-negative cell lines (HONE1 cells and HK1 cells). In the test, 100 μL different cell lines were inoculated in a transparent 96-well plate, each well containing 5×10^3 […]-1 cells. After the cells were cultured in an incubator with 5% carbon dioxide at 37° C. for 24 hours, 10 μL compound at a concentration range from 1 mmol/L to 7.8 μmol/L was added into each well (8 points, 2-fold dilution, the final concentration was 100-0.78 μmol/L), and treated in the incubator with carbon dioxide at 37° C. for 72 hours. The cell viability was assessed using a redox indicator Resazurin. Specifically, 10 μL Resazurin at a concentration of 600 μmol/L was added into each well, and incubated at 37° C. for 3 hours, and a Tecan microplate reader was used to detect the fluorescence signal at an excitation wavelength of 560 nm and an emission wavelength of 590 nm. A software was used to fit the inhibition curve and calculate the concentration for 50% of maximal effect (EC50). The selectivity of compound activity was assessed by comparing the EC50 of EBV-positive and EBV-negative cell lines.

[2] = test system: C666-1 cells; assay: C666-1 cell viability single concentration (50 μM) inhibition rate (Resazurin); assay type: cell-based; settings: Homo sapiens, C6661, 72 h
Method in brief: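 EBV-positive C666-1 cells (5×10^3/well), pre-cultured 24 h, were exposed to compound at 50 μmol/L final for 72 h at 37° C, 5% CO2, in duplicate. Viability by resazurin (3 h, ex 560/em 590 nm); inhibition rate computed relative to DMSO control and medium-only blank.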

[3] = 50 μM compound, 72 hours, C666-1 cells, read-out: C666-1 cell viability single concentration (50 μM) inhibition rate, Ratio* (Inh %)
[4] = C666-1 cells, single concentration, read-out: Inhibition Rate (Inh %)
[5] = read-out: C666-1 cell viability single concentration (50 μM) inhibition rate, Ratio* (Inh %)

Structure (SMILES)	inhibition at 50 µM [2, 3] [%]	further results
COC(=O)c1cccc(N2CC(OC(=O)Nc3ccc(OC)cc3OC)C2)c1-n1cccc1 [Example 146, Methyl 3-(3-(((2,4-dimethoxyphenyl)carbamoyl)oxy)azetidin-1-yl)-2-(1H-pyrrol-1-yl)benzoate]	10 to 30	EC50 [1]: > 100 µM; inhibition at 50 µM [2, 4]: 10 to 30%
COC(=O)c1cccc(N2CC(OC(=S)Nc3ccc(Cl)cc3)C2)c1-n1cccc1 [Example 147, Methyl 3-(3-(((4-chlorophenyl)thiocarbamoyl)oxy)azetidin-1-yl)-2-(1H-pyrrol-1-yl)benzoate]	30 to 50	EC50 [1]: 50 to 75 µM; inhibition at 50 µM [2, 4]: 30 to 50%
COC(=O)c1cccc(N2CC(OC(=O)Nc3ccc(Oc4ccccc4)cc3)C2)c1-n1cccc1 [Example 152, Methyl 3-(3-(((4-phenoxyphenyl)carbamoyl)oxy)azetidin-1-yl)-2-(1H-pyrrol-1-yl)benzoate]	< 10	EC50 [1]: > 100 µM; inhibition at 50 µM [2, 4]: < 10%
COC(=O)c1cccc(N2CC(OC(=O)Nc3ccc(OC(F)(F)F)cc3)C2)c1-n1cccc1 [Example 153, Methyl 2-(1H-pyrrol-1-yl)-3-(3-(((4-(trifluoromethoxy)phenyl)carbamoyl)oxy)azetidin-1-yl)benzoate]	10 to 30	EC50 [1]: 75 to 100 µM; inhibition at 50 µM [2, 4]: 10 to 30%
COC(=O)c1cccc(N2CC(OC(=O)NCc3ccc(C(F)(F)F)cc3)C2)c1-n1cccc1 [Example 154, Methyl 2-(1H-pyrrol-1-yl)-3-(3-(((4-(trifluoromethyl)benzyl)carbamoyl)oxy)azetidin-1-yl)benzoate]	10 to 30	EC50 [1]: > 100 µM; inhibition at 50 µM [2, 4]: 10 to 30%
COC(=O)c1cccc(N2CC(=CC(=O)OC(C)(C)C)C2)c1-n1cccc1 [Example 189, Methyl 3-(3-(2-(tert-butoxy)-2-oxovinyl)azetidin-1-yl)-2-(1H-pyrrol-1-yl)benzoate]	10 to 30	EC50 [1]: 75 to 100 µM; inhibition at 50 µM [2, 4]: 10 to 30%
COc1cccc(Oc2ccc(OC3CN(c4cccc(C(=O)O)c4-n4cccc4)C3)cc2)c1 [Example 197, 3-(3-(4-(3-methoxyphenoxy)phenoxy)azetidin-1-yl)-2-(1H-pyrrol-1-yl) benzoic acid]	10 to 30	EC50 [1]: > 100 µM; inhibition at 50 µM [2, 4]: 10 to 30%
O=C(O)c1cccc(N2CC(Oc3ccc(COc4cncnc4)cc3)C2)c1-n1cccc1 [Example 361, 3-(3-(4-((pyrimidin-5-yl-oxy)methyl)phenoxy)azetidin-1-yl)-2-(1H-pyrrol-1-yl)benzoic acid]	< 10	–
COC(=O)c1cccc(N2CC(Oc3ccc(CNc4ccccc4)cc3)C2)c1-n1cccc1 [Example 362]	< 10	–
O=C(O)c1cccc(N2CC(Oc3ccc(CNc4ccccc4)cc3)C2)c1-n1cccc1 [Example 363]	< 10	–
COC(=O)c1cccc(N2CC(Oc3ccc(CNCc4ccccc4)cc3)C2)c1-n1cccc1 [Example 364]	< 10	–
O=C(O)c1cccc(N2CC(Oc3ccc(CNCc4ccccc4)cc3)C2)c1-n1cccc1 [Example 365]	< 10	–
COCCOCc1ccc(OC2CN(c3cccc(C(=O)OC)c3-n3cccc3)C2)cc1OCCOC [Example 366, Methyl 3-(3-(3-(2-methoxyethoxy)-4-((2-methoxyethoxy)methyl)phenoxy)azetidin-1-yl)-2-(1H-pyrrol-1-yl)benzoate]	10 to 30	–
COCCOCc1ccc(OC2CN(c3cccc(C(=O)O)c3-n3cccc3)C2)cc1OCCOC [Example 367, 3-(3-(3-(2-methoxyethoxy)-4-((2-methoxyethoxy)methyl)phenoxy)azetidin-1-yl)-2-(1H-pyrrol-1-yl)benzoic acid]	< 10	–
N#CCCNC(=O)c1cccc(N2CC(Oc3ccc(CO)cc3)C2)c1-n1cccc1 [Example 368, N-(2-cyanoethyl)-3-(3-(4-(hydroxymethyl)phenoxy)azetidin-1-yl)-2-(1H-pyrrol-1-yl)benzamide]	10 to 30	–
CS(=O)(=O)NC(=O)c1cccc(N2CC(Oc3ccc(CO)cc3)C2)c1-n1cccc1 [Example 369, N-methylsulfonyl-(3-(3-(4-(hydroxymethyl)phenoxy)azetidin-1-yl)-2-(1H-pyrrol-1-yl))benzamide]	< 10	–
COCCOCc1ccc(OC2CN(c3cccc(C(=O)OC)c3-n3cccc3)C2)cc1 [Example 370]	10 to 30	–
COCCOCc1ccc(OC2CN(c3cccc(C(=O)O)c3-n3cccc3)C2)cc1 [Example 371]	10 to 30	–
COC(=O)c1cccc(N2CC(Oc3ccc(COCCO)cc3)C2)c1-n1cccc1 [Example 372]	10 to 30	–
O=C(O)c1cccc(N2CC(Oc3ccc(COCCO)cc3)C2)c1-n1cccc1 [Example 373]	< 10	–
COC(=O)c1cccc(N2CC(Oc3ccc(COCCNC(C)=O)cc3)C2)c1-n1cccc1 [Example 374]	10 to 30	–

Structure (SMILES)	inhibition at 50 µM [2, 3] [%]	further results
COC(=O)c1cccc(N2CC(Oc3ccc(COC4CCOC4)cc3)C2)c1-n1cccc1 (stereo not shown) [Example 375]	< 10	–
O=C(O)c1cccc(N2CC(Oc3ccc(COC4CCOC4)cc3)C2)c1-n1cccc1 (stereo not shown) [Example 376]	10 to 30	–
COC(=O)c1cccc(N2CC(Oc3ccc(COC4COC4)cc3)C2)c1-n1cccc1 [Example 377, Methyl 3-(3-(4-((oxetanyl-3-oxy)methyl)phenoxy)azetidin-1-yl)-2-(1H-pyrrol-1-yl)benzoate]	> 50	–
COC(=O)c1cccc(N2CC(Oc3ccc(COC4CCN(C(C)=O)CC4)cc3)C2)c1-n1cccc1 [Example 378]	< 10	–
O=C(O)c1cccc(C#CN2Cc3ccccc3S2(=O)=O)c1-n1cccc1 [Example 379]	> 50	–
Cc1ccc(S(=O)(=O)N(C#Cc2cccc(C(=O)O)c2-n2cccc2)Cc2ccccc2)cc1 [Example 380, 3-(((N-benzyl-4-methylphenyl)sulfonamido)ethynyl)-2-(1H-pyrrol-1-yl)benzoic acid]	< 10	–
CS(=O)(=O)N(C#Cc1cccc(C(=O)O)c1-n1cccc1)Cc1ccccc1 [Example 382, Lithium 3-((N-benzylmethylsulfonamido)ethynyl)-2-(1H-pyrrol-1-yl)benzoate]	–	inhibition at 50 µM [2, 5]: < 10%
Cc1ccc(S(=O)(=O)N(C)C#Cc2cccc(C(=O)O)c2-n2cccc2)cc1 [Example 384]	< 10	–
COC(=O)c1cccc(C#CN(Cc2ccc(OC)cc2)S(=O)(=O)c2ccc(C)cc2)c1-n1cccc1 [Example 385]	10 to 30	–
COc1ccc(CN(C#Cc2cccc(C(=O)O)c2-n2cccc2)S(=O)(=O)c2ccc(C)cc2)cc1 [Example 386]	–	inhibition at 50 µM [2, 5]: < 10%
COC(=O)c1cccc(C#CN(Cc2cccnc2)S(=O)(=O)c2ccc(C)cc2)c1-n1cccc1 [Example 387]	> 50	–
O=C(NCc1ccco1)c1cccc(N2CC(Oc3ccc(CO)cc3)C2)c1-n1cccc1 [Example 388, N-(furan-2-yl-methyl)-3-(3-(4-(hydroxymethyl)phenoxy)azetidin 1-yl)-2-(1H-pyrrol-1-yl)benzamide]	< 10	–
COC(=O)c1cccc(C#CN(Cc2ccncc2)S(=O)(=O)c2ccc(C)cc2)c1-n1cccc1 [Example 389]	> 50	–
Cc1ccc(S(=O)(=O)N(C#Cc2cccc(C(=O)O)c2-n2cccc2)Cc2ccncc2)cc1 [Example 390]	–	inhibition at 50 µM [2, 5]: 10 to 30%
COC(=O)c1cccc(C2CC2c2ccccc2)c1N (stereo not shown) [Example 391, Methyl 2-amino-3-(2-phenylcyclopropyl)benzoate]	< 10	–
Nc1c(C(=O)O)cccc1C1CC1c1ccccc1 (stereo not shown) [Example 392, 2-amino-3-(2-phenylcyclopropyl)benzoic acid]	< 10	–
O=C(O)c1cccc(C2CC2c2ccccc2)c1-n1cccc1 (stereo not shown) [Example 393, 3-(2-phenylcyclopropyl)-2-(1H-pyrrol-1-yl)benzoic acid]	< 10	–
O=C(O)c1cccc(N2CC(Oc3ccc(COC4CCOCC4)cc3)C2)c1-n1cccc1 [Example 394, 2-(1H-pyrrol-1-yl)-3-(3-(4-(((tetrahydro-2H-pyran-4-yl)oxy)methyl)phenoxy)azetidin-1-yl)benzoic acid]	< 10	–
COC(=O)c1cccc(N2CC(Oc3ccc(CO)cc3)C2)c1-c1cc2ccccc2s1 [Example 395, Methyl 2-(benzo[b]thiophen-2-yl)-3-(3-(4-(hydroxymethyl)phenoxy)azetidin-1-yl)benzoate]	10 to 30	–
CN(C)CCNC(=O)c1cccc(N2CC(Oc3ccc(CO)cc3)C2)c1-n1cccc1 [Example 396, N-(2-dimethylamino)ethyl-3-(3-(4-(hydroxymethyl)phenoxy)azetidin-1-yl)-2-(1H-pyrrol-1-yl)benzamide]	< 10	–
